Results from patent US7495104B2, “Quinoline or quinazoline derivatives inhibiting auto-phosphorylation of fibroblast growth factor receptors” (Kirin Beer Kabushiki Kaisha, priority 2001, dated 2009).
Counter-ions that a name gives are not always drawn.

Target: Bek (Homo sapiens, UniProt P21802)
Assay: Inhibitory activity against Bek-autophosphorylation using ELISA method in OCUM-2MD3 cells
Format: cell-based
Settings: 1 hr with compound, read-out: IC50 (concentration necessary for inhibiting 50% of Bek-phosphorylation)
In short: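 Sandwich ELISA (anti-phosphotyrosine capture, anti-Bek detection, peroxidase, 450 nm) measured Bek autophosphorylation in OCUM-2MD3 lysates after 1 hr compound treatment at 37° C in 0.1% serum medium. IC50 derived by scaling between no-drug (100%) and excess positive control at 1000 nM (0%).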

Bek, sequence (P21802 431-767 limits assumed): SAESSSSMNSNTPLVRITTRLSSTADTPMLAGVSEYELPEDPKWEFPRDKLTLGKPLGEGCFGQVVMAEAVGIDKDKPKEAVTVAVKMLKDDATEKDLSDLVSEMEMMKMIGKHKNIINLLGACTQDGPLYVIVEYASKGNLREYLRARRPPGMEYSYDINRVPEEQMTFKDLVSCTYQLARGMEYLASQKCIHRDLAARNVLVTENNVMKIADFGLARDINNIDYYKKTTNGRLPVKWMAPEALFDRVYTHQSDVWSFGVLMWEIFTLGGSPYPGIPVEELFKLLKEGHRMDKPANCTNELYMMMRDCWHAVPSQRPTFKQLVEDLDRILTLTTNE

How did the IC50 turn out when `COc1cc2nccc(Oc3ccc(NC(=O)NC4CCCC(C)(C)C4)c(Cl)c3)c2cc1OC` (stereo not shown) [Compound 110, 1-[2-Chloro-4-(6,7-dimethoxy-quinolin-4-yloxy)-phenyl]-3-(3,3-dimethyl-cyclohexyl)-urea] was run?
The IC50 was less than 10 nM.

With `COc1cc2nccc(Oc3ccc(NC(=O)NCCC(C)(C)C)c(F)c3)c2cc1OC` [Compound 111, 1-[4-(6,7-Dimethoxy-quinolin-4-yloxy)-2-fluoro-phenyl]-3-(3,3-dimethyl-butyl)-urea] as the compound, how does the IC50 read?
Its IC50 is less than 10 nM.

`COc1cc2c(Oc3ccc(NC(=O)NCCC(C)(C)C)cc3)ccnc2cc1OCCN1CCOCC1` [Compound 112, 1-(3,3-Dimethyl-butyl)-3-{4-[6-methoxy-7-(2-morpholin-4-yl-ethoxy)-quinolin-4-yloxy]-phenyl}-urea hydrochloride] was tested. Which IC50 did it give?
Its IC50 is 52.1 nM.

How did the IC50 turn out when `COc1cc2c(Oc3ccc(NC(=O)NCCC(C)(C)C)cc3)ccnc2cc1OCCN1CCN(C)CC1` [Compound 113, 1-(3,3-Dimethyl-butyl)-3-(4-{6-methoxy-7-[2-(4-methyl-piperazin-1-yl)-ethoxy]-quinolin-4-yloxy}-phenyl)-urea hydrochloride] was run?
Its IC50 is 10 nM.

How did the IC50 turn out when `COc1cc2c(Oc3ccc(NC(=O)NCCC(C)(C)C)c(Cl)c3)ccnc2cc1OCCN1CCN(C)CC1` [Compound 115, 1-(2-Chloro-4-{6-methoxy-7-[2-(4-methyl-piperazin-1-yl)-ethoxy]-quinolin-4-yloxy}-phenyl)-3-(3,3-dimethyl-butyl)-urea] was run?
Its IC50 is less than 10 nM.

With `COc1cc2c(Oc3ccc(NC(=O)NCCC(C)(C)C)c(Cl)c3)ccnc2cc1OCCN1C[C@@H](C)O[C@@H](C)C1` [Compound 116, 1-(2-Chloro-4-{7-[2-(2,6-dimethyl-morpholin-4-yl)-ethoxy]-6-methoxy-quinolin-4-yloxy}-phenyl)-3-(3,3-dimethyl-butyl)-urea] as the compound, how does the IC50 read?
Its IC50 is 14.4 nM.

`COc1cc2c(Oc3ccc(NC(=O)NCCC(C)(C)C)c(Cl)c3)ccnc2cc1OCCN1CCC(C)CC1` [Compound 117, 1-(2-Chloro-4-{6-methoxy-7-[2-(4-methyl-piperidin-1-yl)-ethoxy]-quinolin-4-yloxy}-phenyl)-3-(3,3-dimethyl-butyl)-urea] was tested. Which IC50 did it give?
Its IC50 is 178 nM.

For `COc1cc2c(Oc3ccc(NC(=O)NCCC(C)(C)C)cc3)ccnc2cc1OCCN1CC(C)OC(C)C1` (stereo not shown) [Compound 119, 1-(3,3-Dimethyl-butyl)-3-(4-{7-[2-(2,6-dimethyl-morpholin-4-yl)-ethoxy]-6-methoxy-quinolin-4-yloxy}-phenyl)-urea], which IC50 is on record?
The IC50 was less than 10 nM.

Which IC50 does the source give for `COc1cc2c(Oc3ccc(NC(=O)NCCC(C)(C)C)cc3)ccnc2cc1OCCN1CC(C)CC(C)C1` (stereo not shown) [Compound 120, 1-(3,3-Dimethyl-butyl)-3-(4-{7-[2-(3,5-dimethyl-piperidin-1-yl)-ethoxy]-6-methoxy-quinolin-4-yloxy}-phenyl)-urea] here?
Its IC50 is 21 nM.

For `COc1cc2c(Oc3ccc(NC(=O)NCCC(C)(C)C)cc3)ccnc2cc1OCCN1CCC(c2ccccc2)CC1` [Compound 121, 1-(3,3-Dimethyl-butyl)-3-(4-{6-methoxy-7-[2-(4-phenyl-piperidin-1-yl)-ethoxy]-quinolin-4-yloxy}-phenyl)-urea], which IC50 is on record?
The IC50 was 88 nM.

With `COc1cc2c(Oc3ccc(NC(=O)NCCC(C)(C)C)cc3)ccnc2cc1OCCN1CCC(Cc2ccccc2)CC1` [Compound 122, 1-(4-{7-[2-(4-Benzyl-piperidin-1-yl)-ethoxy]-6-methoxy-quinolin-4-yloxy}-phenyl)-3-(3,3-dimethyl-butyl)-urea] as the compound, how does the IC50 read?
The IC50 was 151 nM.

Which IC50 does the source give for `COc1cc2c(Oc3ccc(NC(=O)NCCC(C)(C)C)cc3)ccnc2cc1OCCN1CCC(N2CCCCC2)CC1` [Compound 123, 1-{4-[7-(2-[1,4′]bipiperidineyl-1′-yl-ethoxy)-6-methoxy-quinolin-4-yloxy]-phenyl}-3-(3,3-dimethyl-butyl)-urea] here?
The IC50 was less than 10 nM.

For `COc1cc2c(Oc3ccc(NC(=O)NCCC(C)(C)C)cc3)ccnc2cc1OCCN1CCC(N2CCCC2)CC1` [Compound 124, 1-(3,3-Dimethyl-butyl)-3-(4-{6-methoxy-7-[2-(4-pyrrolidin-1-yl-piperidin-1-yl)-ethoxy]-quinolin-4-yloxy}-phenyl)-urea], which IC50 is on record?
Its IC50 is less than 10 nM.
